# Data published in patent US11648220B2, “Methods for the treatment of myeloid derived suppressor cells related disorders” (The Rockefeller University, priority 2016, dated 2023).
# Key:
# [1] = system: myeloid-derived suppressor cells (MDSCs) in B16F10 melanoma; assay: tumor-infiltrating MDSCs in B16F10 tumor-bearing mice (flow cytometry, Gr1 immunohistochemistry); format: in vivo
# Description: (§1) All mouse studies were conducted according to a protocol approved by the Institutional Animal Care and Use Committee at the Rockefeller University. C57BL/6 mice were obtained from the Jackson Laboratory. For experiments testing the effect of LXR agonists on tumor growth, mice were assigned to a control chow or a chow supplemented with compound 682 (Sigma-Aldrich) or compound 705 (Rgenix, Inc.) at 50, or 100 mg/kg/day, as indicated. For combination drug regimens, mice were fed a compound 705-supplemented diet and co-treated with anti-PD-1 antibody (clone RMP1-14 BioXcell), 10 mg/kg by i.p. injection every 3 days for 3 total doses starting on the day of tumor injection. All drug-formulated diets were prepared by Research Diets.
# All mouse studies were conducted according to a protocol approved by the Institutional Animal Care and Use Committee at the Rockefeller University. […]
# (§2) At the indicated day, tumors were isolated from euthanized mice and minced into small (˜1 mm^2) pieces with a scalpel and then enzymatically dissociated. […] After staining, cells were subsequently analyzed by flow cytometry using an LSRII flow cytometer (BD Biosciences). Data was analyzed using FlowJo software. […]
# At the indicated day, blood was drawn from mice and treated with RBC Lysis Buffer (Sigma) followed by filtration through a […] filter (Corning Inc) to obtain a single cell suspension of lymphocytes. […] After staining, cells were subsequently analyzed by flow cytometry using an LSRII flow cytometer (BD Biosciences). Data was analyzed using FlowJo software.
# For MDSC quantification studies, frozen tumor sections (no fixation) were stained with an antibody against Gr1 (1:1000; BioXcell). […]
# [2] = system: MDSCs; assay: MDSC abundance assay; format: cell-based, mice; conditions: 1 μM, 3 hours
# Description: MDSCs were isolated from the spleens of tumor-bearing wild-type or ApoE−/− mice, as indicated, using the MACS Myeloid-Derived Suppressor Cell Isolation Kit (Miltenyi Biotech) according to manufacturer's protocol. MDSCs were then incubated in RPMI (Sigma) supplemented with 10% FBS and either COMPOUND 705 (dissolved in 2% DMSO at the indicated concentration) or control (2% DMSO) and subsequently incubated at 37° C. for the indicated time. Abundance was assessed by quantifying the percent of live cells using propidium Iodide staining. […]
# [3] = system: B16F10 melanoma; assay: B16F10 tumors, compound 705 plus anti-PD-1 antibody; format: in vivo, mice; conditions: B16F10, diet 50 mg/kg/day plus anti-PD-1 antibody 10 mg/kg I.P. every 3 days
# Description: as §1, with “Diets. […]” for “Diets.”
# as §2
# After tumor cell injection, animals were treated with anti-PD-1 antibody at a dose of 10 mg/kg (clone RMP1-14; BioXcell), by intraperitoneal (I.P.) injection every 3 days for 3 total doses starting on the day of tumor injection. […] Tumor dimensions were measured using digital calipers, and tumor volume was calculated as (small diameter)^2×(large diameter)/2. […]
# [4] = system: B16F10 melanoma; assay: B16F10 tumors, compound 705 plus adoptive transfer of Pmel CD8+ T-cells (survival); format: in vivo, mice; conditions: B16F10, diet 50 mg/kg/day plus 2×10^6 Pmel CD8+ T-cells
# Description: (§3) All mouse studies were conducted according to a protocol approved by the Institutional Animal Care and Use Committee at the Rockefeller University. C57BL/6 (WT); and Pmel (B6.Cg-Thy1^a/Cy Tg(TcraTcrb)8Rest/J mice were obtained from the Jackson Laboratory. To determine the effect of LXR agonists on in vivo primary tumor growth, mice were injected with 5×10^4 B16F10 melanoma cells. For all tumor growth experiments, cells (suspension in […] of PBS) were mixed 1:1 with matrigel (356231, BD Biosciences, Bedford, Mass.) and subcutaneously injected into the lower flank of 6-8 week-old sex-matched mice. Following formation of tumors, mice were assigned to the following treatment groups as described below. All drug-formulated diets were prepared by Research Diets. After the indicated number of days, either peripheral blood or tumors were isolated to obtain tumor-infiltrating lymphocytes for flow-cytometry analysis as described below.
# After tumor cell injection, tumor volumes were measured every two days. Upon tumors measuring 90-100 mm^3 in volume (day 6-7), mice were randomly assigned to a control diet treatment or a COMPOUND 705-supplemented diet (50 mg/kg/day; Rgenix).
# The following day, 2×10^6 CD8+ T-cells from Pmel mice were adoptively transferred via retro-orbital injection into both control and COMPOUND 705 treated mice. […]
# [5] = system: CD8+ T-cells co-cultured with MDSCs; assay: T-cell suppression assay; format: cell-based; conditions: 24 hours co-culture with MDSCs from treated tumor-bearing mice
# Description: CD8+ cells were purified from single cell suspensions from spleens of mice using the MACS CD8+ T-cell isolation kit (Miltenyi Biotech) according to manufacturer's protocol. Cells were then labeled with cell tracker reagent (BV). The labeled CD8+ T cells were plated on 96-well plates coated with 1 mg/ml anti-CD3 and anti-CD28 beads (Dynabeads® Mouse T-Activator CD3/CD28 for T-Cell Expansion and Activation; Gibco). Recombinant IL-2 (Gibco) was then added to the wells according to manufacturer's protocol. MDSC were then isolated using the MACS Myeloid-Derived Suppressor Cell Isolation Kit (Miltenyi Biotech) according to manufacturer's protocol and subsequently added in the indicated MDSC:T-cell ratios. Cells were incubated at 37° C. for 24-36 hours. T-cell activation was measured by flow cytometry by assessing the percent of T-cells positive for IFNγ staining with diluted BV dye.
# [6] = biological target: T1, LXRα (Homo sapiens, UniProt Q13133); conditions: cited from earlier work
# T1 sequence (Q13133 1-447): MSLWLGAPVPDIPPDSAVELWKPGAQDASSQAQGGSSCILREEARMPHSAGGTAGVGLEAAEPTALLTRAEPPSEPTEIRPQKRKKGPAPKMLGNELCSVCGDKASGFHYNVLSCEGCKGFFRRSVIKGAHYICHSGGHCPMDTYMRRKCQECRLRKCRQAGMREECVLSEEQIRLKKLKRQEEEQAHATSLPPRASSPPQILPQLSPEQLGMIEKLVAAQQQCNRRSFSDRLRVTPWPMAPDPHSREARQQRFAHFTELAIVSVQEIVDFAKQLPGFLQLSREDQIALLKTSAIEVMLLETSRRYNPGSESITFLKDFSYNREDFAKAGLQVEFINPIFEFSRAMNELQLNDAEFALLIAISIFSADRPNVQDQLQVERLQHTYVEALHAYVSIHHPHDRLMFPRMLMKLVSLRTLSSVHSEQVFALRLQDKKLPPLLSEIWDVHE
# [7] = biological target: T2, LXRβ (Homo sapiens, UniProt P55055); assay: ligand sensing assay (LiSA), LXRβ; format: biochemical
# T2 sequence (P55055 1-460): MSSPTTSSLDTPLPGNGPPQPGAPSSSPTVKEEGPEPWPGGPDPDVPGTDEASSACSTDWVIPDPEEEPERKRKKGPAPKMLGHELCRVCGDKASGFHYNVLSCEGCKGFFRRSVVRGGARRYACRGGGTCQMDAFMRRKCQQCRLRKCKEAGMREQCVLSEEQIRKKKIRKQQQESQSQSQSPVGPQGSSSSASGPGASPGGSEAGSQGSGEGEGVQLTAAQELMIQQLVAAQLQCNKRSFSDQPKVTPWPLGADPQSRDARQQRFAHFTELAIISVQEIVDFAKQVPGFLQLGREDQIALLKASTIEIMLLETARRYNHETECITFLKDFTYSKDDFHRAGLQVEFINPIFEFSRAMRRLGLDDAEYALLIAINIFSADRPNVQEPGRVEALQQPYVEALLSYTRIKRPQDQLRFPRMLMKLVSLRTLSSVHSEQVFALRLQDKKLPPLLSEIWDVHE
# Excerpt: As used herein, reference to the activity of an LXR agonist at LXRα and LXRβ refer to the activity as measured using the ligand sensing assay (LiSA) described in Spencer et al. Journal of Medicinal Chemistry 2001, 44, 886-897, incorporated herein by reference. […] For example, the methods of the invention can be performed using an LXRβ agonist having activity for LXRβ that is at least 3-fold greater than the activity of the agonist for LXRα, or having activity for LXRβ that is at least 10-fold greater than the activity of the agonist for LXRα, or having activity for LXRβ that is at least 100-fold greater than the activity of said agonist for LXRα, or having activity for LXRβ that is at least within 3-fold of the activity of the agonist for LXRα. The term “greater activity” in the LiSA assay refers to a lower EC50.
# [8] = system: activated CD8+ T-cells in B16F10 melanoma; assay: tumor-infiltrating activated CD8+ T-cells in B16F10 tumor-bearing mice (flow cytometry); format: in vivo; conditions: supplemented diet 100 mg/kg/day, tumors isolated day 12-14
# Description: as §3, with “After the indicated number of days, either peripheral blood or tumors were isolated to obtain tumor-infiltrating lymphocytes for flow-cytometry analysis as described below.” left out
# as §2
# After tumor cell injection, animals were palpated every two days for tumor formation. […] Tumor dimensions were measured using digital calipers, and tumor volume was calculated as (small diameter)^2×(large diameter)/2. […]
# [9] = daily I.P. injection 2 mg, day 12-14
smiles,measurement,setting,value
CC(CCOc1cccc(CC(=O)O)c1)N(Cc1cccc(C(F)(F)F)c1Cl)CC(c1ccccc1)c1ccccc1 (stereo not shown) [Compound 705],number of granulocytic MDSCs (G-MDSC),[1]; [9],reduces the number
same,number of monocytic MDSCs (M-MDSC),[1]; [9],reduces the number
same,abundance of MDSCs in vitro,[2],reduces abundance of MDSCs in vitro
same,anti-tumor T-cell response induced with anti-PD-1 antibody therapy,[3],enhances the anti-tumor T-cell response
same,anti-tumor activity of adoptively transferred melanoma-targeting CD8+ T-cells,[4],enhances the anti-tumor activity
same,MDSC-mediated suppression of CD8+ T-cells,[5],reverses MDSC-mediated suppression of CD8+ T-cells
CC(C)(O)c1cn(-c2ccc(-c3cccc(S(C)(=O)=O)c3)cc2)c(C(C)(C)c2ccccc2Cl)n1 [Compound 718],EC50,[6],101 to 1000 nM
O=C(O)Cc1cccc(OCCCN(Cc2cccc(C(F)(F)F)c2Cl)CC(c2ccccc2)c2ccccc2)c1 [Compound 682],number of tumor-infiltrating myeloid-derived suppressor cells (MDSCs),"[1]; supplemented diet 100 mg/kg/day, tumors isolated day 12-14",reduces the number of tumor-infiltrating myeloid-derived suppressor cells
same,fold greater activity for LXRβ compared to LXRα,[7],approximately 6 fold
same,number of tumor-infiltrating activated CD8+ T-cells,[8],increases the number of tumor-infiltrating activated CD8+ T-cells
